pIC50: −log10 of the molar value.
Assays:
[1] = biological target: T1, human group 1B PLA2 (hps PLA2) (Homo sapiens, UniProt P04054); assay: Fluorimetric PPyrPM assay for group 1B PLA2 inhibition (Example 12); format: biochemical; settings: human pancreas secreted PLA2; read-out: ILYPSA IC50 hps PLA2
T1 construct: made in house; host or cells: E. coli

[2] = biological target: T2, mouse group 1B PLA2 (mps PLA2) (Mus musculus, UniProt Q9Z0Y2); assay: as above; format: biochemical; settings: mouse pancreas secreted PLA2; read-out: ILYPSA IC50 mps PLA2
T2 construct: made in house; host or cells: E. coli
T2 sequence (Q9Z0Y2 23-146): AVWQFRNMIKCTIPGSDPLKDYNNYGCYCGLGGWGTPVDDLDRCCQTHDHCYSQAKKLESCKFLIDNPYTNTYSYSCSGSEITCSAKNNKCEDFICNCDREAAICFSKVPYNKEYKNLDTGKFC

T1 sequence (P04054 23-148): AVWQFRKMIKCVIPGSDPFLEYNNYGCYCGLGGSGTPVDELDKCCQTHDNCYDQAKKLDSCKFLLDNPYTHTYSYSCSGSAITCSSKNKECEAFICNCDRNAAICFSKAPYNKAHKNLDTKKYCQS

## Cc1c(C(=O)C(N)=O)c2c(OCC(=O)O)cccc2n1CCCCCCCCSCCCCCCCCSCCCCCCCCn1c(C)c(C(=O)C(N)=O)c2c(OCC(=O)O)cccc21 [ILY-V-24, 2,2′-(1,1′-(8,8′-(Octane-1,8-diylbis(sulfanediyl))bis(octane-8,1-diyl))bis(3-(2-amino-2-oxoacetyl)-2-methyl-1H-indole-4,1-diyl))bis(oxy)diacetic acid]
[1]
  pIC50: 6.27
[2]
  pIC50: 5.98

— patent publication US20070135383A1, “Phospholipase inhibitors, including multi-valent phospholipase inhibitors, and use thereof, including as lumen-localized phospholipase inhibitors” (priority 2005, published 2007)
